Where a name gives a salt, the structure may show the parent alone. Read-outs that look alike come from different tables or passages of the source.
Assays:
[1] = tested on: primary cortico-hippocampal neuron cultures; test: MTT in primary screening
Aβ1-42 = Aβ1-42 content in conditioned medium of primary cortico-hippocampal neuron cultures from Tg2576 mice (ELISA; primary and secondary dose-response screening); format: cell-based, mouse; details: for activity at 100 µM: Mus musculus, Neuron, 24 h, read-out: Ab1-42 (% of ctl); for activity at 100 µM / Ab1-42 (% of ctl): drug 100 μM; for reducing Aβ1-42: <85% of ctl
Method in brief: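 Primary cortico-hippocampal neurons from embryonic Tg2576 mouse brain were seeded on poly-D-lysine-coated 96-well plates at 1.0×10^5 cells per well in serum-free Neurobasal medium with 2% B27, 0.5 mM L-glutamine and 1% penicillin-streptomycin. For primary screening, duplicate wells received 100 μM drug (1% DMSO final). Vehicle-treated cultures served as controls, and Aβ1-42 in conditioned medium was measured by commercial ELISA.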

[2] = tested on: primary cortico-hippocampal neuron cultures; test: lactate dehydrogenase (LDH) activity assay in parallel neuron cultures
Procedure: For in vitro treatments drugs available from “The Spectrum Collection” in stocks of 10 mM in DMSO were applied directly to cultures to the desired concentrations (final 1% DMSO); control primary neuron cultures from Tg2576 embryos were treated with vehicle resulting in a final 1% DMSO.
Cell viability was assessed using a commercial available LDH assay kit according to the manufacture's instruction (Promega).

Aβ1-40 = Aβ1-40 content in conditioned medium of primary cortico-hippocampal neuron cultures from Tg2576 mice (ELISA; primary and secondary dose-response screening); format: cell-based, mouse; details: for activity at 100 µM: Mus musculus, Neuron, 24 h, read-out: Ab1-40 (% of ctl); for activity at 100 µM / Ab1-40 (% of ctl): drug 100 μM; for reduced Aβ1-40: <85% of ctl
Method in brief: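 Primary cortico-hippocampal neurons from embryonic Tg2576 mice were plated at 1.0×10^5 cells per well on poly-D-lysine-coated 96-well plates in Neurobasal with 2% B27, 0.5 mM L-glutamine and 1% penicillin-streptomycin. Cultures received drug in 1% DMSO, and Aβ1-40 in the conditioned medium was measured by BioSource ELISA 24 hours after treatment, relative to vehicle controls.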

[3] = Primary Screening, table sorted by Aβ1-40
[4] = primary screening, table sorted by Aβ1-42
[5] = primary screening, Tg2576 neuron cultures, table sorted by Aβ1-42

Row | Structure (SMILES) | MTT (% of ctl) [1, 3] | MTT (% of ctl) [1, 4] | LDH (% of ctl) [2, 3] | LDH (% of ctl) [2, 4] | activity at 100 µM (Aβ1-42; [3]) | activity at 100 µM (Aβ1-42; [5]) | activity at 100 µM (Aβ1-40; [3]) | activity at 100 µM (Aβ1-40; [5]) | reducing Aβ1-42 (Aβ1-42; primary screening) | reduced Aβ1-40 (Aβ1-40; primary screening) | Ab1-42 (% of ctl) (Aβ1-42; [3]) | Ab1-42 (% of ctl) (Aβ1-42; [5]) | Ab1-40 (% of ctl) (Aβ1-40; [3]) | Ab1-40 (% of ctl) (Aβ1-40; [5])
1 | CCCC(=O)Nc1ncnc2c1ncn2[C@@H]1O[C@@H]2COP(=O)(O)O[C@H]2[C@H]1OC(=O)CCC [Bucladesine] | 97.2 % of ctl | 97.2 % of ctl | 357.1 % of ctl | 357.1 % of ctl | 69.9% | 69.9% | 85.3% | 85.3% | useful in reducing Aβ1-42 |  |  |  |  | 
2 | COc1ccc(C2C(=O)c3ccccc3C2=O)cc1 [Anisindione] | 110.7 % of ctl | 110.7 % of ctl | 148.9 % of ctl | 148.9 % of ctl | 103% | 103% | 90.1% | 90.1% |  |  |  |  |  | 
3 | CC(=O)CCCCn1c(=O)c2c(ncn2C)n(C)c1=O [Pentoxifylline] | 91.1 % of ctl | 91.1 % of ctl | 132.4 % of ctl | 132.4 % of ctl | 109% | 109% | 97.1% | 97.1% |  |  |  |  |  | 
4 | NS(=O)(=O)c1cc2c(cc1Cl)N=CNS2(=O)=O [Chlorothiazide] | 99.4 % of ctl | 99.4 % of ctl | 110.3 % of ctl | 110.3 % of ctl | 104% | 104% | 107% | 107% |  |  |  |  |  | 
5 | CCOC(=O)C1=C(COCCN)NC(C)=C(C(=O)OC)C1c1ccccc1Cl (centres unmarked) [Amlodipine Besylate] | 13.3 % of ctl | 13.3 % of ctl | 1188.9 % of ctl | 1188.9 % of ctl | 10.2% | 10.2% | 4.9% | 4.9% | useful in reducing Aβ1-42 | reduced Aβ1-40 |  |  |  | 
6 | COc1cc2nc(N(C)CCCNC(=O)C3CCCO3)nc(N)c2cc1OC (centres unmarked) [Alfluzosin] | 91.8 % of ctl | 91.8 % of ctl | 95.4 % of ctl | 95.4 % of ctl |  |  |  |  | useful in reducing Aβ1-42 |  | 66.9 % of ctl | 66.9 % of ctl | 122.7 % of ctl | 122.7 % of ctl
7 | C[C@]12CCC(=O)C=C1C=C[C@@H]1[C@@H]2CC[C@@]2(C)[C@H]1CC[C@@]2(O)CCC(=O)O [Canrenoic Acid, Potassium Salt] | 102.1 % of ctl | 102.1 % of ctl | 106.9 % of ctl | 106.9 % of ctl | 106% | 106% | 101% | 101% |  |  |  |  |  | 
8 | C=CCc1ccccc1OCC(O)CNC(C)C (centres unmarked) [Alprenolol] | 92.2 % of ctl | 92.2 % of ctl | 128.0 % of ctl | 128.0 % of ctl | 106% | 106% | 93.8% | 93.8% |  |  |  |  |  | 
9 | CCCCNc1cc(C(=O)O)cc(S(N)(=O)=O)c1Oc1ccccc1 [Bumetanide] | 95.3 % of ctl | 95.3 % of ctl | 118.1 % of ctl | 118.1 % of ctl | 74.7% | 74.7% | 2.3% | 2.3% | useful in reducing Aβ1-42 | reduced Aβ1-40 |  |  |  | 
10 | CC(=O)Nc1nnc(S(N)(=O)=O)s1 [Acetazolamide] | 78.0 % of ctl | 78.0 % of ctl | 173.5 % of ctl | 173.5 % of ctl | 118% | 118% | 115% | 115% |  |  |  |  |  | 

Second part, led by results:

Row | MTT (% of ctl) [1, 3] | MTT (% of ctl) [1, 4] | LDH (% of ctl) [2, 3] | LDH (% of ctl) [2, 4] | Structure (SMILES) | activity at 100 µM (Aβ1-42; [3]) | activity at 100 µM (Aβ1-42; [5]) | activity at 100 µM (Aβ1-40; [3]) | activity at 100 µM (Aβ1-40; [5]) | reducing Aβ1-42 (Aβ1-42; primary screening) | reduced Aβ1-40 (Aβ1-40; primary screening) | Ab1-42 (% of ctl) (Aβ1-42; [3]) | Ab1-42 (% of ctl) (Aβ1-42; [5]) | Ab1-40 (% of ctl) (Aβ1-40; [3]) | Ab1-40 (% of ctl) (Aβ1-40; [5])
11 | 103.8 % of ctl | 103.8 % of ctl | 118.0 % of ctl | 118.0 % of ctl | C[N+]1(CCCCC[N+]2(C)CCCC2)CCCC1 [Pentolinium Tartrate] | 134% | 134% | 121% | 121% |  |  |  |  |  | 
12 | 97.5 % of ctl | 97.5 % of ctl | 112.5 % of ctl | 112.5 % of ctl | c1ccc(CC2=NCCN2)cc1 [Tolazoline Hydrochloride] | 99.6% | 99.6% | 90.8% | 90.8% |  |  |  |  |  | 
13 | 114.9 % of ctl | 114.9 % of ctl | 97.0 % of ctl | 97.0 % of ctl | CNC1(C)C2CCC(C2)C1(C)C (centres unmarked) [Mecamylamine Hydrochloride] | 130% | 130% | 124% | 124% |  |  |  |  |  | 
14 | 76.5 % of ctl | 76.5 % of ctl | 159.3 % of ctl | 159.3 % of ctl | CN1C[C@H](CNC(=O)OCc2ccccc2)C[C@@H]2c3cccc4c3c(cn4C)C[C@H]21 [Metergoline] | 2.3% | 2.3% | -3.1% | -3.1% | useful in reducing Aβ1-42 | reduced Aβ1-40 |  |  |  | 
15 | 96.1 % of ctl | 96.1 % of ctl | 117.3 % of ctl | 117.3 % of ctl | NC(N)=NC(=O)c1nc(Cl)c(N2CCCCCC2)nc1N [N,N-Hexamethyleneamiloride] |  |  |  |  | useful in reducing Aβ1-42 | reduced Aβ1-40 | 26.2 % of ctl | 26.2 % of ctl | 15.4 % of ctl | 15.4 % of ctl
16 | 59.4 % of ctl | 59.4 % of ctl | 120.4 % of ctl | 120.4 % of ctl | Fc1ccc(C(c2ccc(F)cc2)N2CCN(C/C=C/c3ccccc3)CC2)cc1 [Flunarizine Hydrochloride] | 53.3% | 53.3% | 42.1% | 42.1% | useful in reducing Aβ1-42 | reduced Aβ1-40 |  |  |  | 
17 | 99.2 % of ctl | 99.2 % of ctl | 107.5 % of ctl | 107.5 % of ctl | Cc1cccc(Nc2ccncc2S(=O)(=O)NC(=O)NC(C)C)c1 [Torsemide] | 104% | 104% | 107% | 107% |  |  |  |  |  | 
18 | 97.5 % of ctl | 97.5 % of ctl | 140.0 % of ctl | 140.0 % of ctl | CC(C)OC(=O)C(C)(C)Oc1ccc(C(=O)c2ccc(Cl)cc2)cc1 [Fenofibrate] | 77.7% | 77.7% | 13.9% | 13.9% |  |  |  |  |  | 
19 | 102.8 % of ctl | 102.8 % of ctl | 106.5 % of ctl | 106.5 % of ctl | CC(C)(C)NCC(O)COc1cccc2c1CC(O)C(O)C2 (centres unmarked) [Nadolol] | 113% | 113% | 94.2% | 94.2% |  |  |  |  |  | 
20 | 117.0 % of ctl | 117.0 % of ctl | 100.6 % of ctl | 100.6 % of ctl | CC(=O)S[C@@H]1CC2=CC(=O)CC[C@]2(C)[C@H]2CC[C@@]3(C)[C@@H](CC[C@@]34CCC(=O)O4)[C@H]12 [Spironolactone] | 70.7% | 70.7% | 60.4% | 60.4% | useful in reducing Aβ1-42 | reduced Aβ1-40 |  |  |  | 
21 | 99.5 % of ctl | 99.5 % of ctl | 103.1 % of ctl | 103.1 % of ctl | CC(CCc1ccc(O)cc1)NCCc1ccc(O)c(O)c1 (centres unmarked) [Dobutamine Hydrochloride] | 103% | 103% | 90.1% | 90.1% |  |  |  |  |  | 
